Results on two compounds are retold here after article PMC10045593, “Ubiquitin-Specific Proteases as Potential Therapeutic Targets in Bladder Cancer—In Vitro Evaluation of Degrasyn and PR-619 Activity Using Human and Canine Models” (Biomedicines, 2023).

Test [1] has as its system SV-HUC-1 cell line. Put plainly: Annexin V-FITC/PI apoptosis flow cytometry. The test is classed as cell-based, human. The note with it: SV-HUC-1, 24 h; for pro-apoptotic effect (number of apoptotic cells vs control): increasing concentrations up to approximately IC50. How it is done:
(§1) To assess the level of apoptosis induced by Degrasyn and PR-619, cells were seeded at a density of 1 × 10^5/mL in 96-well plates (TPP, Trasadingen, Switzerland) and incubated for 24 h with increasing concentrations of compounds. Cells were then collected, suspended in a binding buffer, and stained with Annexin V-FITC for 10 min at room temperature. Subsequently, PI was added, and flow cytometric analysis was immediately performed using a flow cytometers (FACS Calibur, Becton Dickinson, Biosciences, San Jose, CA, USA; CytoFlex, Beckman Coulter, CA, USA). CellQuest 3.lf. (Becton Dickinson, San Jose, CA, USA) and CytExpert 2.4 (Beckman Coulter, CA, USA) software were used for data analysis.

Test [2] deals with T24 cell line. Description: Annexin V-FITC/PI apoptosis flow cytometry. The conditions noted are these: T24, 24 h; for pro-apoptotic effect (number of apoptotic cells vs control): increasing concentrations up to approximately IC50. It is filed as cell-based, human. How it is done:
as §1

The test system of another test is K9TCC-PU-NK cell line. Put plainly: Annexin V-FITC/PI apoptosis flow cytometry. The note with it: 24 h. The test is classed as cell-based, canine. How it is done:
as §1

The test system of another test is RDSVS-TCC1 cell line. Put plainly: Annexin V-FITC/PI apoptosis flow cytometry. The conditions noted are these: RDSVS-TCC1, 24 h; for pro-apoptotic effect (number of apoptotic cells vs control): increasing concentrations up to approximately IC50. The test is classed as cell-based, canine. How it is done: as §1
Test [3] concerns SV-HUC-1 cell line. Put plainly: Caspase 3/7 activation flow cytometry assay. The test is classed as cell-based, human. The note with it: SV-HUC-1, 24 h. How it is done:
(§2) Subsequently, to assess caspases 3/7 activation, the cells were incubated with medium alone or with increasing concentrations of compounds (Degrasyn, PR-619) in conditions similar to the previous test. Following cell collection, the cells were twice PBS-washed and stained in accordance with the manufacturer’s instructions. For active caspase 3/7 detection, CellEventCaspase-3/7 Green Detection Reagent Solution was added to the samples. The cells were then suspended 1 more time in the wash buffer after being washed twice. For flow cytometric analysis, a flow cytometers (FACS Calibur, Becton Dickinson, Biosciences, San Jose, CA, USA; CytoFlex, Beckman Coulter, CA, USA) were used, and CellQuest 3.lf (Becton Dickinson, San Jose, CA, USA) and CytExpert 2.4 (Beckman Coulter, CA, USA) software were used for data analysis. The presented results were obtained from three independent experiments.
(In general: Flow cytometry measures light scatter and fluorescence of single cells or particles in a stream.)

For test [4], the system named is T24 cell line. Put plainly: Caspase 3/7 activation flow cytometry assay. It is filed as cell-based, human. The conditions noted are these: T24, 24 h. How it is done:
as §2

Test [5] has as its system SV-HUC-1 cell line. Put plainly: Ki-67 flow cytometry proliferation assay. It is filed as cell-based, human. The note with it: SV-HUC-1, 24 h, p < 0.05. How it is done:
(§3) For the cell proliferation assay, cells were plated in 100 mm cell culture plates. When the cultures reached 60% confluence, the media were discarded from the wells and replaced with culture media only or media with added compounds (Degrasyn, PR-619) with increasing concentrations for 24 h. The growth medium was then removed from the wells, the cells were rinsed twice with PBS, and 0.25% trypsin-EDTA was added to detach the cells. After 5 min of incubation at 37 °C and 5% CO2, the fresh culture medium was added to inactivate the trypsin, and cells were collected in flow cytometry tubes. Cells were then labeled using the Ki-67 Proliferation Kit BD Pharmingen(BD Biosciences) according to the manufacturer’s instructions and analyzed using a flow cytometer (Cytoflex, Beckman Coulter). Unstained control cells were used for gating to determine the percentage of the proliferation of the Ki-67-positive cells in the samples. Percentages of proliferating (Ki-67 positive) cells were used to calculate the means ± SD for each cell line. The presented results were obtained from three independent experiments.

For test [6], the system named is T24 cell line. Description: Ki-67 flow cytometry proliferation assay. The test is classed as cell-based, human. The conditions noted are these: T24, 24 h, p < 0.05. On the procedure: as §3
A further test deals with γH2AX in T24 cell line. Put plainly: Western blot for γH2AX (DNA damage). It is filed as cell-based, human. The conditions noted are these: T24, 24 h. How it is done: Western blot was performed to assess the expression of USP5, USP9X, and USP14 in analyzed cell lines. After 24 h of incubation with increasing concentrations of Degrasyn and PR-619, the expression of proteins involved in apoptosis (Bcl-2 and Bcl-xl) and a marker of DNA damage (γH2A.X) was also evaluated. Briefly, cells were rinsed with cold phosphate-buffered saline (PBS), suspended in lysis buffer (50 mM Tris-HCl pH 7.5, 100 mM NaCl, 1% NP-40, protease inhibitors set), and incubated for 20 min on ice. Subsequently, after centrifuging at 10,000 rpm at 4 °C for 12 min, sodium dodecyl sulfate (SDS) sample buffer was added to […]. After boiling for 5 min at 95 °C, the samples were subjected to SDS-polyacrylamide gel electrophoresis on 8–15% gel. For USP5, USP9X, USP14, γH2A.X, Bcl-2, and Bcl-xl expression analysis, transfers onto nitrocellulose membranes were performed using a Semidry Transfer Cell or wet transfer method (Bio-Rad, Hercules, CA, USA). After transfer, the membranes were blocked with 1% casein in TBS (or 3% BSA for γH2Ax) at room temperature for 1 h. […]

[7] abbreviates: 2.5 μM (highest concentration of Degrasyn).
Where [8] appears, read: 5 μM (highest concentration of PR-619).

Values joined by “and” are separate entries in the source; they are usually repeats but may differ in a detail not shown here. Equal values may be shown once.

With `CCC[C@H](NC(=O)/C(C#N)=C/c1cccc(Br)n1)c1ccccc1` [Degrasyn], the “percentage of early and late apoptotic cells” value with SV-HUC-1 cell line [1] (2.5 μM) worked out at 24.1 ± 2.8%; with T24 cell line [2] (2.5 μM), 32.2 ± 9.2%; with K9TCC-PU-NK cell line (2.5 μM) it was 11.8 ± 3.4%; in the test on RDSVS-TCC1 cell line (2.5 μM), 42.4 ± 2.3%. Also, the “pro-apoptotic effect (number of apoptotic cells vs control)” value with SV-HUC-1 cell line [1], with T24 cell line [2] and with RDSVS-TCC1 cell line was “significant increase” throughout. The “percentage of cells with active caspase 3/7” value in the test on SV-HUC-1 cell line [3] (0.6 μM) was 5.8%; with SV-HUC-1 cell line [3] (1.25 μM), 7.6%; with SV-HUC-1 cell line [3] (setting [7]), 22.4 ± 5.4% and 22.4%; in the test with T24 cell line [4] (0.6 μM), 12.5%; in the test on T24 cell line [4] (1.25 μM), 16.1%; with T24 cell line [4] (setting [7]), 36.6 ± 0.7% and 36.6%. Besides, in the test on SV-HUC-1 cell line [5] (only highest concentration 5 µM), the “percentage of Ki-67 positive cells (as compared to control)” value is “significantly decreased”. Besides, the “percentage of Ki-67 positive cells (as compared to the control)” value in the test with T24 cell line [6] (2.5–5 µM) was “significantly decreased”. The “expression of γH2AX” value with γH2AX in T24 cell line (2.5 µM and 5 µM) is “high expression”.
For `N#CSc1cc(SC#N)c(N)nc1N` [PR-619], the “percentage of early and late apoptotic cells” value in the test with SV-HUC-1 cell line [1] (5 μM) amounted to 14.8 ± 5.8%; with T24 cell line [2] (5 μM), 9.8 ± 1.5%; in the test on K9TCC-PU-NK cell line (5 μM), 8.4 ± 0.8%; in the test with RDSVS-TCC1 cell line (5 μM), 17.2 ± 6.5%. Besides, the “pro-apoptotic effect (number of apoptotic cells vs control)” value with SV-HUC-1 cell line [1], in the test with T24 cell line [2], with K9TCC-PU-NK cell line (increasing concentrations up to approximately IC50) and in the test with RDSVS-TCC1 cell line was “did not show a significant pro-apoptotic effect” in each case. The “percentage of cells with active caspase 3/7” value with SV-HUC-1 cell line [3] (1.25 μM) was 8.9%; in the test with SV-HUC-1 cell line [3] (setting [7]), 10.6%; in the test with SV-HUC-1 cell line [3] (setting [8]) it was 19.6 ± 1.8% and 19.6%; with T24 cell line [4] (1.25 μM), 10.2%; in the test on T24 cell line [4] (setting [7]), 13.4%; with T24 cell line [4] (setting [8]), 16.1 ± 4.9% and 16.1%. In the test with SV-HUC-1 cell line [5] (only highest concentration 10 µM), the “percentage of Ki-67 positive cells (as compared to control)” value is recorded as “significantly decreased”. Besides, the “percentage of Ki-67 positive cells (as compared to the control)” value in the test on T24 cell line [6] (5–10 µM) is listed as “significantly decreased”. In the test with γH2AX in T24 cell line (highest concentrations of the drug), the “amount of γH2AX” value is “only a slight visible increase”.
